Assay results from article PMC4387272, “Pharmacokinetic, pharmacodynamic and biomarker evaluation of transforming growth factor-β receptor I kinase inhibitor, galunisertib, in phase 1 study in patients with advanced cancer” (Investigational new drugs, 2014).
Read-outs that look alike come from different tables or passages of the source.

Experiments:
[1] = tested on: T cell subsets (CD3+, CD8+, CD4+, CD4+CD25+CD127-/LOFoxp3+); experiment: Flow cytometry for T cell subsets; assay type: in vivo, Human
Excerpt: Blood samples were obtained and prepared for flow cytometry assessment following the instructions of Quintiles Laboratories (Durham, NC). After red blood cell lysis, cells were stained for CD3^+, CD8^+, CD4^+ and CD4^+CD25^+ CD127^−/LOFoxp3^+ and events were collected by flow cytometer per standard Quintiles procedures. All results were reported as absolute cell counts and as percentage of lymphocytes.
An amendment was introduced to assess T cell subsets in Part B and Part C.

[2] = Non-compartmental plasma pharmacokinetics of galunisertib in patients (LC-MS/MS); assay type: in vivo, Human; conditions: for Cmax / AUC(0-inf): po
Protocol: Human plasma samples obtained during this study were analyzed at PharmaNet USA, Inc. Princeton, New Jersey, USA. The samples were analyzed for galunisertib levels using 2 validated liquid chromatography with tandem mass spectrometry methods. For the high-range method (PharmaNet USA, Inc. SOP TM.589), the lower limit of quantification was 5.000 ng/mL and the upper limit of quantification was 1000.000 ng/mL. The intra-assay accuracy (% relative error) during validation ranged from 1.800 to 10.222 %. The intra-assay precision (% relative standard deviation) during validation ranged from 3.119 to 18.389 %. Samples above the limit of quantification were diluted to yield results within the calibrated range. Samples below the lower limit of quantification using the high-range method were reanalyzed using the low-range method. For the low-range method (PharmaNet USA, Inc. SOP TM.563), the lower limit of quantification was 0.050 ng/mL and the upper limit of quantification was 10.000 ng/mL. The intra-assay accuracy during validation ranged from −5.080 to −2.000 %. The intra-assay precision during validation ranged from 4.404 to 12.245 %.
All patients who received at least 1 dose of galunisertib and had samples collected were subjected to PK analyses. The PK parameters for galunisertib were computed by standard non-compartmental methods of analysis using Win Nonlin Professional Edition (version 5.3) on a computer that met or exceeded the minimum system requirements for this program with appropriate and validated software. The parameters reported from the non-compartmental analyses included the maximum plasma concentration (Cmax), area under the curve from zero to 24 h (AUC(0–24)), AUC from zero time to infinity (AUC(0–∞)), half-life volume of distribution (Vd) and clearance (CL).
Clinical benefit in this study has been defined as a patient with either a complete response (CR), partial response (PR), and stable disease (SD) ≥6 cycles. MAIP results from plasma samples taken at baseline were compared between patients completing >6 cycles and ≤6 cycles using ANOVA. The analysis included controlling the false discovery rate to 30 % using the Benjamini-Hochberg method. Boxplots showing the distributions at baseline of the potentially prognostic markers are provided. Observed TGF-β-stimulated pSMAD2 (pSMAD2^+) in PBMCs was normalized by TGF-β-stimulated tSMAD2 [(tSMAD2^+) ^0.6[9, 10]] prior to determining the minimum normalized pSMAD2^+ and calculating percentage inhibition post-baseline for each patient. Baseline and minimum post-baseline values for each patient together with maximum percentage inhibition are presented on a line and scatter plot for each patient in Cohort 3 and summary statistics by time point provided from a standard mixed effects regression model, fitting log normalized pSMAD2^+ to the fixed effects of log baseline normalized pSMAD2^+, nominal time point, dose and their interaction and patient as a random effect.
• Part A (Fig. 1 and Table 2): Non-compartmental PK analysis was performed on 37 of the 39 patients treated in Part A: n=3 in Cohort 1 (40 mg/day); n=4 in Cohort 2 (80 mg/day); n=15 in Cohort 3 (160 mg/day); n=6 in Cohort 4 (240 mg/day); n=9 in Cohort 5 (300 mg/day). […] The terminal half-life was approximately 8 h. At steady state, on Day 14, the median time to maximum concentration (tmax,ss) ranged from 0.5 to 2 h post dose, independent of dose. Formal assessment of time-linear kinetics was not possible, regardless of whether or not the observed exposures of AUC(0–∞) Day 1 and AUC(0–∞) Day 14 were similar. […] Both the maximum observed plasma concentration at steady state (Cmax,ss) and exposure increased with dose as indicated from the statistical analysis of the PK parameters. […] A population PK model was developed based on data in Cohorts 1 through 5 [7]. […] PK profiles of galunisertib following administration of 160 mg/day (Cohort 6) and 300 mg/day (Cohort 7) on Days 6 and 7 were similar.

[3] = design: method as in PMID 24868575; conditions: population PK model, Cohorts 1 through 5; cited from earlier work
[4] = Part A, 240 mg/day oral BID, day 14 steady state, Cycle 2, individual patients
[5] = Part A, 7.5-fold dose range, power model

Cc1cccc(-c2nn3c(c2-c2ccnc4ccc(C(N)=O)cc24)CCC3)n1 [galunisertib]
lymphocyte counts and the respective subsets ([1]; Part B, in combination with lomustine): reduced
counts of CD3+, CD8+, CD4+ and CD4+CD25+CD127−/LOFoxp3+ cells ([1]; Part C, monotherapy): either stabilized or increased
AUC0,∞ individual parameters (n <3) [2, 4]: 2500- ^a ng*h/mL
Cmax, ss individual parameters (n <3) [2, 4]: 610- ^a ng/mL
PK profile in patients on enzyme-inducing anti-epileptic medication versus other patients ([2]; Part A, 3 patients (2 in Cohort 3, 1 in Cohort 4)): do not appear to differ
accumulation over the 14-day BID dosing regimen ([2]; Part A, 5 cohorts): no accumulation
estimated ratio of geometric means for AUC(0-∞) between 40 and 300 mg daily [2, 5]: 5.61
estimated ratio of geometric means for Cmax,ss between 40 and 300 mg daily [2, 5]: 3.99
PK profile with co-administration of proton pump inhibitors ([2]; Part A, 14 patients on PPI, Day 14): do not appear to be altered
fold increase of AUC(0–∞) for a doubling of dose ([2]; Part A, 40–300 mg, power model): 1.81 fold
fold increase of Cmax,ss for a doubling of dose ([2]; Part A, 40–300 mg, power model): 1.61 fold
duration of measurable plasma concentrations ([2]; Part A, oral, patients): at least 48 h
effect of co-administration of lomustine on galunisertib PK profile ([2]; Part B, 160 mg/day and 300 mg/day, Days 6 and 7): did not appear to alter
dose proportionality of PK ([2]; any doubling of dose within 40–300 mg, particularly AUC(0-∞)): dose-proportional PK
Tmax ([2]; human, plasma, oral, Part A, steady state, Day 14, post dose, independent of dose, read-out: median time to maximum concentration (tmax,ss)): 1800 to 7200 s
Cmax ([2]; human, plasma, 40 mg/day, Part A, 40 mg/day oral BID, day 14 steady state, Cycle 1, patients, read-out: Cmax, ss mean (% CV)): 220 ng/mL
Cmax ([2]; human, plasma, 80 mg/day, Part A, 80 mg/day oral BID, day 14 steady state, Cycle 1, patients, read-out: Cmax, ss mean (% CV)): 350 ng/mL
AUC(0-inf) ([2]; human, plasma, 160 mg/day, Part A, 160 mg/day oral BID, day 14 steady state, Cycle 1, patients, read-out: AUC0,∞ mean (% CV)): 2140 ng·h/mL
Cmax ([2]; human, plasma, 160 mg/day, Part A, 160 mg/day oral BID, day 14 steady state, Cycle 1, patients, read-out: Cmax, ss mean (% CV)): 630 ng/mL
AUC(0-inf) ([2]; human, plasma, 160 mg/day, Part A, 160 mg/day oral BID, day 14 steady state, Cycle 2, patients, read-out: AUC0,∞ mean (% CV)): 2430 ng·h/mL
Cmax ([2]; human, plasma, 160 mg/day, Part A, 160 mg/day oral BID, day 14 steady state, Cycle 2, patients, read-out: Cmax, ss mean (% CV)): 790 ng/mL
AUC(0-inf) ([2]; human, plasma, 240 mg/day, Part A, 240 mg/day oral BID, day 14 steady state, Cycle 1, patients, read-out: AUC0,∞ mean (% CV)): 3060 ng·h/mL
Cmax ([2]; human, plasma, 240 mg/day, Part A, 240 mg/day oral BID, day 14 steady state, Cycle 1, patients, read-out: Cmax, ss mean (% CV)): 660 ng/mL
AUC(0-inf) ([2]; human, plasma, 240 mg/day, Part A, 240 mg/day oral BID, day 14 steady state, Cycle 2, individual patients, read-out: AUC0,∞ individual parameters (n <3)): 2900 ng·h/mL
Cmax ([2]; human, plasma, 240 mg/day, Part A, 240 mg/day oral BID, day 14 steady state, Cycle 2, individual patients, read-out: Cmax, ss individual parameters (n <3)): 520 ng/mL
AUC(0-inf) ([2]; human, plasma, 300 mg/day, Part A, 300 mg/day oral BID, day 14 steady state, Cycle 1, patients, read-out: AUC0,∞ mean (% CV)): 3730 ng·h/mL
Cmax ([2]; human, plasma, 300 mg/day, Part A, 300 mg/day oral BID, day 14 steady state, Cycle 1, patients, read-out: Cmax, ss mean (% CV)): 990 ng/mL
AUC(0-inf) ([2]; human, plasma, 300 mg/day, Part A, 300 mg/day oral BID, day 14 steady state, Cycle 2, patients, read-out: AUC0,∞ mean (% CV)): 2930 ng·h/mL
Cmax ([2]; human, plasma, 300 mg/day, Part A, 300 mg/day oral BID, day 14 steady state, Cycle 2, patients, read-out: Cmax, ss mean (% CV)): 800 ng/mL
half-life ([2]; human, plasma, Part A, oral, patients, read-out: terminal half-life (converted)): ~8 h
between-patient coefficient of variation for AUC(0-∞) at steady state ([2]; pooled across the 5 cohorts): 42%
between-patient coefficient of variation for Cmax,ss ([2]; pooled across the 5 cohorts): 55%
within-patient coefficient of variation for AUC(0-∞) at steady state ([2]; pooled across the 5 cohorts): 29%
within-patient coefficient of variation for Cmax,ss ([2]; pooled across the 5 cohorts): 31%
mean population CL [3]: 38 L/h
steady state volume of distribution (Vss) [3]: 210 L
